Key:
Healthy Participant = assay: Post-prandial glycemic profile (finger-prick blood sugar) after white rice breakfast, healthy participant; assay type: in vivo, human; settings: HP2 healthy participant, 125 g white rice
Source text: 125 g microwaveable white rice (details, amount of available carbohydrate?) was eaten together with a cup of water. Finger-prick blood sugar readings were taken before consumption of the standard meal in the morning (i.e. the standard meal was breakfast). Two readings were taken and the average value was used as the blood sugar reading. After consumption of the meal, another blood sugar reading was taken. Further blood sugar readings were taken at 15-minute intervals thereafter. A subject (HP2, Healthy Participant) was given a standard white rice breakfast, containing 125 g cooked white rice (example A3), and was tested for post-prandial glycemic profile-this was the first control glycemic profile. […] This was the third control glycemic profile. On another day, the same subject was given the acarbose-containing pre-meal drink described in example A1 (this drink is prepared according to the invention). This was the test glycemicsrofile.

[1] = tested on: subject with type 2 diabetes; assay: Post-prandial glycemic profile (finger-prick blood sugar) after white rice breakfast, subjects with type 2 diabetes; assay type: in vivo, human
Experimental: 160 g microwaveable white rice (details, amount of available carbohydrate?) was eaten together with a cup of water.
240 g microwaveable white rice (Uncle Bens Brand Microwavable White Rice, […] of available carbohydrate) and 200 ml of hot tea.
Finger-prick blood sugar readings were taken before consumption of the standard meal in the morning (i.e. the standard meal was breakfast). Two readings were taken and the average value was used as the blood sugar reading. After consumption of the meal, another blood sugar reading was taken. Further blood sugar readings were taken at 15-minute intervals thereafter.
A subject with type 2 diabetes (T2D1, person) was given a standard white rice breakfast (Example A2) and was tested for post-prandial glycemic profile—this was the first control glycemic profile. […] This was the third control glycemic profile. […] This was the test glycemic profile. […]
A subject with type 2 diabetes (T2D5, person) was given a standard white rice breakfast (Example A2) and was tested for post-prandial glycemic profile—this was the first control glycemic profile. […] This was the third control glycemic profile. […] This was the test glycemic profile.
This was the second glycemic test profile.
This was the second test glycemic profile.
This was the first glycemic test profile.

[2] = tested on: subject with type 2 diabetes; assay: Post-prandial glycemic profile (finger-prick blood sugar) after white bread breakfast, subjects with type 2 diabetes; assay type: in vivo, human
Source text: 2 slices of thick-cut savoury white bread spread with 29 g jam (over both slices) were eaten together with a cup of tea or coffee. A total available carbohydrate per serve was 50 g. 2 slices of thick-cut savoury white bread spread with 29 g jam (over both slices) were eaten together with a cup of tea or coffee. […] A total available carbohydrate per serve was 50 g. Finger-prick blood sugar readings were taken before consumption of the standard meal in the morning (i.e. the standard meal was breakfast). Two readings were taken and the average value was used as the blood sugar reading. After consumption of the meal, another blood sugar reading was taken. Further blood sugar readings were taken at 15-minute intervals thereafter. […] This was the first glycemic test profile. […] This was the second glycemic test profile. […] This was the first test glycemic profile. […] This was the second glycemic test profile.

patients = settings: 1255 patients, Acarbose tablets 50-300 mg t.i.d.; cited from earlier work

## C[C@H]1O[C@H](O[C@H]2[C@H](O)[C@@H](O)[C@@H](O[C@H]3[C@H](O)[C@@H](O)C(O)O[C@@H]3CO)O[C@@H]2CO)[C@H](O)[C@@H](O)[C@@H]1N[C@H]1C=C(CO)[C@@H](O)[C@H](O)[C@H]1O (stereo partly shown) [acarbose]
Healthy Participant; time after eating 0 min
  glycemic profile (mM blood glucose): 6.03 mM
Healthy Participant; time after eating 15 min
  glycemic profile (mM blood glucose): 6.4 mM
Healthy Participant; time after eating 30 min
  glycemic profile (mM blood glucose): 7.04 mM
Healthy Participant; time after eating 45 min
  glycemic profile (mM blood glucose): 6.75 mM
Healthy Participant; time after eating 60 min
  glycemic profile (mM blood glucose): 5.9 mM
Healthy Participant; time after eating 75 min
  glycemic profile (mM blood glucose): 6.1 mM
Healthy Participant; time after eating 90 min
  glycemic profile (mM blood glucose): 6.175 mM
Healthy Participant; time after eating 105 min
  glycemic profile (mM blood glucose): 5.8 mM
Healthy Participant; time after eating 120 min
  glycemic profile (mM blood glucose): 6.3 mM
Healthy Participant; time after eating 135 min
  glycemic profile (mM blood glucose): 6.23 mM
Healthy Participant; time after eating −15 min
  glycemic profile (mM blood glucose): 5.65 mM
[1]; T2D1, 240 g white rice (Example B3), time after eating 30 min
  glycemic profile (mM blood glucose): 9.32 mM
[1]; T2D1, 240 g white rice (Example B3), time after eating 60 min
  glycemic profile (mM blood glucose): 10.4 mM
[1]; T2D1, 240 g white rice (Example B3), time after eating 75 min
  glycemic profile (mM blood glucose): 11.0 mM
[1]; T2D1, 240 g white rice (Example B3), time after eating 90 min
  glycemic profile (mM blood glucose): 10.8 mM
[1]; T2D1, 240 g white rice (Example B3), time after eating 105 min
  glycemic profile (mM blood glucose): 11 mM
[1]; T2D1, 240 g white rice (Example B3), time after eating 120 min
  glycemic profile (mM blood glucose): 10.4 mM
[1]; T2D1, 240 g white rice (Example B3), time after eating 135 min
  glycemic profile (mM blood glucose): 10.4 mM
[1]; T2D1, 240 g white rice (Example B3), time after eating 165 min
  glycemic profile (mM blood glucose): 9.45 mM
[1]; T2D1, 240 g white rice (Example B3), time after eating 180 min
  glycemic profile (mM blood glucose): 9.66 mM
[1]; T2D1, 240 g white rice (Example B3), time after eating −25 min
  glycemic profile (mM blood glucose): 7.3 mM
[1]; T2D1, 240 g white rice (Example B7), time after eating 30 min
  glycemic profile (mM blood glucose): 9.32 mM
[1]; T2D1, 240 g white rice (Example B7), time after eating 60 min
  glycemic profile (mM blood glucose): 10.4 mM
[1]; T2D1, 240 g white rice (Example B7), time after eating 75 min
  glycemic profile (mM blood glucose): 11.0 mM
[1]; T2D1, 240 g white rice (Example B7), time after eating 90 min
  glycemic profile (mM blood glucose): 10.8 mM
[1]; T2D1, 240 g white rice (Example B7), time after eating 105 min
  glycemic profile (mM blood glucose): 11 mM
[1]; T2D1, 240 g white rice (Example B7), time after eating 120 min
  glycemic profile (mM blood glucose): 10.4 mM
[1]; T2D1, 240 g white rice (Example B7), time after eating 135 min
  glycemic profile (mM blood glucose): 10.4 mM
[1]; T2D1, 240 g white rice (Example B7), time after eating 165 min
  glycemic profile (mM blood glucose): 9.45 mM
[1]; T2D1, 240 g white rice (Example B7), time after eating 180 min
  glycemic profile (mM blood glucose): 9.66 mM
[1]; T2D1, 240 g white rice (Example B7), time after eating −25 min
  glycemic profile (mM blood glucose): 7.3 mM
[1]; T2D1, standard white rice breakfast (Example A2, 160 g), time after eating 45 min
  glycemic profile (mM blood glucose): 9.6 mM
[1]; T2D1, standard white rice breakfast (Example A2, 160 g), time after eating 60 min
  glycemic profile (mM blood glucose): 9.8 mM
[1]; T2D1, standard white rice breakfast (Example A2, 160 g), time after eating 75 min
  glycemic profile (mM blood glucose): 9.6 mM
[1]; T2D1, standard white rice breakfast (Example A2, 160 g), time after eating 90 min
  glycemic profile (mM blood glucose): 10.9 mM
[1]; T2D1, standard white rice breakfast (Example A2, 160 g), time after eating 105 min
  glycemic profile (mM blood glucose): 9.65 mM
[1]; T2D1, standard white rice breakfast (Example A2, 160 g), time after eating 120 min
  glycemic profile (mM blood glucose): 10.25 mM
[1]; T2D1, standard white rice breakfast (Example A2, 160 g), time after eating 135 min
  glycemic profile (mM blood glucose): 9.82 mM
[1]; T2D1, standard white rice breakfast (Example A2, 160 g), time after eating 150 min
  glycemic profile (mM blood glucose): 9.26 mM
[1]; T2D5, 240 g white rice (Example B2), time after eating 0 min
  glycemic profile (mM blood glucose): 7.4 mM
[1]; T2D5, 240 g white rice (Example B2), time after eating 30 min
  glycemic profile (mM blood glucose): 10.4 mM
[1]; T2D5, 240 g white rice (Example B2), time after eating 45 min
  glycemic profile (mM blood glucose): 10.1 mM
[1]; T2D5, 240 g white rice (Example B2), time after eating 60 min
  glycemic profile (mM blood glucose): 9.7 mM
[1]; T2D5, 240 g white rice (Example B2), time after eating 75 min
  glycemic profile (mM blood glucose): 9.95 mM
[1]; T2D5, 240 g white rice (Example B2), time after eating 165 min
  glycemic profile (mM blood glucose): 7.3 mM
[1]; T2D5, 240 g white rice (Example B2), time after eating 180 min
  glycemic profile (mM blood glucose): 6.5 mM
[1]; T2D5, 240 g white rice (Example B2), time after eating −10 min
  glycemic profile (mM blood glucose): 5.2 mM
[1]; T2D5, 240 g white rice (Example B2), time after eating −25 min
  glycemic profile (mM blood glucose): 5 mM
[1]; T2D5, 240 g white rice (Example B6), time after eating 0 min
  glycemic profile (mM blood glucose): 7.4 mM
[1]; T2D5, 240 g white rice (Example B6), time after eating 30 min
  glycemic profile (mM blood glucose): 10.4 mM
[1]; T2D5, 240 g white rice (Example B6), time after eating 45 min
  glycemic profile (mM blood glucose): 10.15 mM
[1]; T2D5, 240 g white rice (Example B6), time after eating 60 min
  glycemic profile (mM blood glucose): 9.76 mM
[1]; T2D5, 240 g white rice (Example B6), time after eating 75 min
  glycemic profile (mM blood glucose): 9.95 mM
[1]; T2D5, 240 g white rice (Example B6), time after eating 165 min
  glycemic profile (mM blood glucose): 7.3 mM
[1]; T2D5, 240 g white rice (Example B6), time after eating 180 min
  glycemic profile (mM blood glucose): 6.5 mM
[1]; T2D5, 240 g white rice (Example B6), time after eating −10 min
  glycemic profile (mM blood glucose): 5.2 mM
[1]; T2D5, 240 g white rice (Example B6), time after eating −25 min
  glycemic profile (mM blood glucose): 5 mM
[1]; T2D5, 240 g white rice, baselines of both profiles matched
  peak glucose height, rise above baseline: 5.3 mmol/L
[2]; T2D5, 2 slices white bread + 29 g jam (Example B4), time after eating 0 min
  glycemic profile (mM blood glucose): 8.5 mM
[2]; T2D5, 2 slices white bread + 29 g jam (Example B4), time after eating 15 min
  glycemic profile (mM blood glucose): 9.3 mM
[2]; T2D5, 2 slices white bread + 29 g jam (Example B4), time after eating 30 min
  glycemic profile (mM blood glucose): 9.5 mM
[2]; T2D5, 2 slices white bread + 29 g jam (Example B4), time after eating 45 min
  glycemic profile (mM blood glucose): 9.65 mM
[2]; T2D5, 2 slices white bread + 29 g jam (Example B4), time after eating 60 min
  glycemic profile (mM blood glucose): 9.85 mM
[2]; T2D5, 2 slices white bread + 29 g jam (Example B4), time after eating 75 min
  glycemic profile (mM blood glucose): 9.6 mM
[2]; T2D5, 2 slices white bread + 29 g jam (Example B4), time after eating 90 min
  glycemic profile (mM blood glucose): 9.8 mM
[2]; T2D5, 2 slices white bread + 29 g jam (Example B4), time after eating 105 min
  glycemic profile (mM blood glucose): 9.35 mM
[2]; T2D5, 2 slices white bread + 29 g jam (Example B4), time after eating 120 min
  glycemic profile (mM blood glucose): 9.05 mM
[2]; T2D5, 2 slices white bread + 29 g jam (Example B4), time after eating 135 min
  glycemic profile (mM blood glucose): 7.65 mM
[2]; T2D5, 2 slices white bread + 29 g jam (Example B4), time after eating 150 min
  glycemic profile (mM blood glucose): 6.93 mM
[2]; T2D5, 2 slices white bread + 29 g jam (Example B4), time after eating 165 min
  glycemic profile (mM blood glucose): 6.55 mM
[2]; T2D5, 2 slices white bread + 29 g jam (Example B4), time after eating 180 min
  glycemic profile (mM blood glucose): 5.35 mM
[2]; T2D5, 2 slices white bread + 29 g jam (Example B4), time after eating −10 min
  glycemic profile (mM blood glucose): 6.5 mM
[2]; T2D5, 2 slices white bread + 29 g jam (Example B4), time after eating −25 min
  glycemic profile (mM blood glucose): 6.25 mM
[2]; T2D9, 2 slices white bread + 29 g jam (Example B5), time after eating 0 min
  glycemic profile (mM blood glucose): 11.8 mM
[2]; T2D9, 2 slices white bread + 29 g jam (Example B5), time after eating 15 min
  glycemic profile (mM blood glucose): 12.8 mM
[2]; T2D9, 2 slices white bread + 29 g jam (Example B5), time after eating 30 min
  glycemic profile (mM blood glucose): 11.6 mM
[2]; T2D9, 2 slices white bread + 29 g jam (Example B5), time after eating 45 min
  glycemic profile (mM blood glucose): 11.3 mM
[2]; T2D9, 2 slices white bread + 29 g jam (Example B5), time after eating 60 min
  glycemic profile (mM blood glucose): 11.4 mM
[2]; T2D9, 2 slices white bread + 29 g jam (Example B5), time after eating 75 min
  glycemic profile (mM blood glucose): 11.1 mM
[2]; T2D9, 2 slices white bread + 29 g jam (Example B5), time after eating 90 min
  glycemic profile (mM blood glucose): 10.4 mM
[2]; T2D9, 2 slices white bread + 29 g jam (Example B5), time after eating 105 min
  glycemic profile (mM blood glucose): 11.0 mM
[2]; T2D9, 2 slices white bread + 29 g jam (Example B5), time after eating 120 min
  glycemic profile (mM blood glucose): 11.8 mM
[2]; T2D9, 2 slices white bread + 29 g jam (Example B5), time after eating 135 min
  glycemic profile (mM blood glucose): 11.2 mM
[2]; T2D9, 2 slices white bread + 29 g jam (Example B5), time after eating 150 min
  glycemic profile (mM blood glucose): 11.8 mM
[2]; T2D9, 2 slices white bread + 29 g jam (Example B5), time after eating 165 min
  glycemic profile (mM blood glucose): 12.9 mM
[2]; T2D9, 2 slices white bread + 29 g jam (Example B5), time after eating 180 min
  glycemic profile (mM blood glucose): 10.2 mM
[2]; T2D9, 2 slices white bread + 29 g jam (Example B5), time after eating −10 min
  glycemic profile (mM blood glucose): 9.9 mM
[2]; T2D9, 2 slices white bread + 29 g jam (Example B5), time after eating −25 min
  glycemic profile (mM blood glucose): 10.4 mM
patients
  incidence of abdominal pain: 19%
  incidence of diarrhea: 31%
  incidence of flatulence: 74%

Source: patent US20180139987A1, “PHARMACEUTICAL POWDER COMPOSITION AND ITS USE IN THE CONTROL OF POST-PRANDIAL GLYCAEMIC PROFILE” (OMNIBLEND INNOVATION PTY LTD, priority 2015, published 2018)
